According to US8933099B2, “Monocyclic pyridine derivative” (Eisai R&D Management Co., Ltd., priority 2013, dated 2015):
Read-outs that look alike come from different tables or passages of the source.

Key:
[1] = system: human stomach cancer cell line SNU-16 (FGFR2 gene amplification); experiment: SNU-16 growth inhibition assay; assay type: cell-based; details: Homo sapiens, SNU-16, 72 h
Protocol: In this assay, the growth inhibitory activity of a test substance in a human stomach cancer cell line harboring FGFR2 gene amplification is measured.
Then, 10 μL of Cell Counting Kit-8 (Dojindo Laboratories, CK04) was added to each well, and the resultant was incubated for 1 to 2 hours in a 5% CO2 incubator (37° C.) to cause a color reaction. The absorbance value was measured with ENVISION™ (PerkinElmer Co., Ltd.) at 450 nm.

[2] = system: normal human umbilical vein endothelial cells (HUVEC); experiment: HUVEC growth inhibition assay (VEGF-induced); assay type: cell-based; details: Homo sapiens, HUVEC, 72 h, read-out: HUVEC (IC50 (nM)), growth in the presence of VEGF 10 ng/mL, 3 days
Protocol: The absorbance value was measured with ENVISION™ (PerkinElmer Co., Ltd.) at 450 nm. The absorbance values of the wells without adding the test substance but with VEGF addition was defined as 100% and the absorbance values of the wells with neither the test substance nor VEGF addition was defined as 0%.

[3] = read-out: SNU-16 (IC50 (nM)), cell growth, 3 days, Cell Counting Kit-8

SMILES	IC50 ([1]; read-out: SNU-16 (IC50 (nM)))	IC50 [1, 3]	IC50 [2]
CCOc1cc2c(ccn2C(=O)NC)cc1Oc1ccnc(NC(=O)c2ccc(C3CCNCC3)cc2)c1 [Example 15, 6-Ethoxy-N-methyl-5-((2-(4-(piperidin-4-yl)benzamide)pyridin-4-yl)oxy)-1H-indole-1-carboxamide]	9.7 nM		
CNC(=O)n1ccc2cc(Oc3ccnc(NC(=O)c4ccc(C5CCN(CCCF)CC5)cc4)c3)c(OC)cc21 [Example 5, 5-((2-(4-(1-(3-Fluoropropyl)piperidin-4-yl)benzamide)pyridin-4-yl)oxy)-6-methoxy-N-methyl-1H-indole-1-carboxamide]		13.4 nM	387 nM
CNC(=O)n1ccc2cc(Oc3ccnc(NC(=O)c4ccc(OC5CCN(C[C@H](C)O)CC5)cc4)c3)c(OC)cc21 [Example 42]		14.1 nM	184 nM
CCOCCOc1cc2c(ccn2C(=O)NC)cc1Oc1ccnc(NC(=O)c2ccc(C3CCN(C[C@H](C)O)CC3)cc2)c1 [Example 112]		3.8 nM	202 nM
CNC(=O)n1ccc2cc(Oc3ccnc(NC(=O)c4ccc(C5CN(C(C)C)C5)cc4)c3)c(OCCCOC)cc21 [Example 123]	8.5 nM		
CCOCCOc1cc2c(ccn2C(=O)NC)cc1Oc1ccnc(NC(=O)c2ccc(CN3CC[C@@H](O)C3)s2)c1 [Example 31]		4.7 nM	186 nM
CCN1CCN(Cc2ccc(C(=O)Nc3cc(Oc4cc5ccn(C(=O)NC)c5cc4OC)ccn3)s2)CC1 [Example 37]		9.4 nM	79.1 nM
CCOCCOc1cc2c(ccn2C(=O)NC)cc1Oc1ccnc(NC(=O)c2ccc(C3CCN(C(C)C)CC3)cc2)c1 [Example 110]	5.8 nM		
CNC(=O)n1ccc2cc(Oc3ccnc(NC(=O)c4ccc(CN5CC[C@@H](O)C5)cc4)c3)c(OCCCF)cc21 [Example 72]		17.1 nM	681 nM
CCOc1cc2c(ccn2C(=O)NC)cc1Oc1ccnc(NC(=O)c2ccc(C3CCN(C[C@H](C)O)CC3)cc2)c1 [Example 61]		10.7 nM	182 nM
CCN1CC(c2ccc(C(=O)Nc3cc(Oc4cc5ccn(C(=O)NC)c5cc4OCCCOC)ccn3)cc2)C1 [Example 124]	8.9 nM		
CNC(=O)n1ccc2cc(Oc3ccnc(NC(=O)c4ccc(C5CCN(C[C@H](C)O)CC5)cc4)c3)c(OCCOC)cc21 [Example 91]		5.3 nM	191 nM
CNC(=O)n1ccc2cc(Oc3ccnc(NC(=O)c4ccc(C5CCN(C[C@H](C)O)CC5)cc4)c3)c(OC(C)C)cc21 [Example 66]		16.1 nM	203 nM
CCOCCOc1cc2c(ccn2C(=O)NC)cc1Oc1ccnc(NC(=O)c2ccc(C3CCN(CC)CC3)cc2)c1 [Example 113]	5.7 nM		
CCN1CCC(c2ccc(C(=O)Nc3cc(Oc4cc5ccn(C(=O)NC)c5cc4OC(C)C)ccn3)cc2)CC1 [Example 68]		20 nM	256 nM
CNC(=O)n1ccc2cc(Oc3ccnc(NC(=O)c4ccc(CN5C[C@H](OC)[C@@H](O)C5)cc4)c3)c(OC)cc21 [Example 10, 5-((2-(4-(((3S,4S)-3-Hydroxy-4-methoxypyrrolidin-1-yl)methyl)benzamide)pyridin-4-yl)oxy)-6-methoxy-N-methyl-1,4-indole-1-carboxamide]		28.7 nM	350 nM
CCN1CCC(c2ccc(C(=O)Nc3cc(Oc4cc5ccn(C(=O)NC)c5cc4OCCCOC)ccn3)cc2)CC1 [Example 129]	7.7 nM		
CCOCCOc1cc2c(ccn2C(=O)NC)cc1Oc1ccnc(NC(=O)c2ccc(C3CCN(C[C@@H](C)O)CC3)cc2)c1 [Example 111]		5.1 nM	195 nM
CNC(=O)n1ccc2cc(Oc3ccnc(NC(=O)c4ccc(CN5CCC[C@H]5CO)s4)c3)c(OC)cc21 [Example 35]		9.8 nM	139 nM
CNC(=O)n1ccc2cc(Oc3ccnc(NC(=O)c4ccc(C5CCNCC5)cc4)c3)c(OCCOC)cc21 [Example 20, 6-(2-Methoxyethoxy)-N-methyl-5-((2-(4-(piperidin-4-yl)benzamide)pyridin-4-yl)oxy)-1H-indole-1-carboxamide]	7.5 nM		
CNC(=O)n1ccc2cc(Oc3ccnc(NC(=O)c4ccc(CN5CC[C@H](O)C5)cc4)c3)c(OCCCF)cc21 [Example 71]		17 nM	648 nM
CNC(=O)n1ccc2cc(Oc3ccnc(NC(=O)c4ccc(C5CCN(C[C@@H](C)O)CC5)cc4)c3)c(OCCCF)cc21 [Example 74]		8.4 nM	198 nM
CNC(=O)n1ccc2cc(Oc3ccnc(NC(=O)c4ccc(CCN5CCC(O)CC5)cc4)c3)c(OC)cc21 [Example 56]		15 nM	96.8 nM
CCOCCOc1cc2c(ccn2C(=O)NC)cc1Oc1ccnc(NC(=O)c2ccc(C3CN(CC(C)(C)O)C3)cc2)c1 [Example 95]	5.1 nM		
CCOCCOc1cc2c(ccn2C(=O)NC)cc1Oc1ccnc(NC(=O)c2ccc(C3CCN(CC(C)(C)O)CC3)cc2)c1 [Example 109]	6.7 nM		

SMILES	IC50 ([1]; read-out: SNU-16 (IC50 (nM)))	IC50 [1, 3]	IC50 [2]
CNC(=O)n1ccc2cc(Oc3ccnc(NC(=O)c4ccc(CN5CC[C@@H](O)C5)cc4)c3)c(OCCCOC)cc21 [Example 121]		14.9 nM	518 nM
CNC(=O)n1ccc2cc(Oc3ccnc(NC(=O)c4ccc(C5CN(CC(C)(C)O)C5)cc4)c3)c(OCCOC)cc21 [Example 79]	4.6 nM		
CNC(=O)n1ccc2cc(Oc3ccnc(NC(=O)c4ccc(C5CN(C[C@H](C)O)C5)cc4)c3)c(OCCCOC)cc21 [Example 119]		11.9 nM	242 nM
CNC(=O)n1ccc2cc(Oc3ccnc(NC(=O)c4ccc(C5CCN(CC(C)(C)O)CC5)cc4)c3)c(OC)cc21 [Example 39]		7.8 nM	124 nM
CCOCCOc1cc2c(ccn2C(=O)NC)cc1Oc1ccnc(NC(=O)c2ccc(CN3CC[C@H](O)C3)cc2)c1 [Example 105]		7.8 nM	687 nM
CNC(=O)n1ccc2cc(Oc3ccnc(NC(=O)c4ccc(CN5CC[C@@H](O)C5)s4)c3)c(OCCOC)cc21 [Example 85]		6.9 nM	235 nM
CCOCCOc1cc2c(ccn2C(=O)NC)cc1Oc1ccnc(NC(=O)c2ccc(C3CCN(C)CC3)cc2)c1 [Example 114]	4.7 nM		
CNC(=O)n1ccc2cc(Oc3ccnc(NC(=O)c4ccc(CN5CC[C@H](O)C5)cc4)c3)c(OC)cc21 [Example 52]		14.4 nM	388 nM
CCN1CCC(c2ccc(C(=O)Nc3cc(Oc4cc5ccn(C(=O)NC)c5cc4OCCCF)ccn3)cc2)CC1 [Example 33, 5-((2-(4-(1-Ethylpiperidin-4-yl)benzamide)pyridin-4-yl)oxy)-6-(3-fluoropropoxy)-N-methyl-1H-indole-1-carboxamide]		8.1 nM	274 nM
CNC(=O)n1ccc2cc(Oc3ccnc(NC(=O)c4ccc(CN5CC[C@H](O)C5)cc4)c3)c(OCCCOC)cc21 [Example 120]			457 nM
CNC(=O)n1ccc2cc(Oc3ccnc(NC(=O)c4ccc(C5CN(C[C@@H](C)O)C5)cc4)c3)c(OCCOC)cc21 [Example 80]		3.8 nM	182 nM
CNC(=O)n1ccc2cc(Oc3ccnc(NC(=O)c4ccc(CN5CCC[C@@H]5CO)cc4)c3)c(OCCCOC)cc21 [Example 116]			520 nM
CNC(=O)n1ccc2cc(Oc3ccnc(NC(=O)c4ccc(C5CCNCC5)cc4)c3)c(OC(C)C)cc21 [Example 17, 6-Isopropoxy-N-methyl-5-((2-(4-(piperidin-4-yl)benzamide)pyridin-4-yl)oxy)-1H-indole-1-carboxamide]	17.7 nM		
CCOCCOc1cc2c(ccn2C(=O)NC)cc1Oc1ccnc(NC(=O)c2ccc(CN3CC[C@@H](O)C3)cc2)c1 [Example 106]			726 nM
CNC(=O)n1ccc2cc(Oc3ccnc(NC(=O)c4ccc(CN5CCC[C@H]5CO)s4)c3)c(OCCOC)cc21 [Example 83]			310 nM
CCOCCOc1cc2c(ccn2C(=O)NC)cc1Oc1ccnc(NC(=O)c2ccc(C3CN(C[C@H](C)O)C3)cc2)c1 [Example 97]	3.6 nM		
CCOCCOc1cc2c(ccn2C(=O)NC)cc1Oc1ccnc(NC(=O)c2ccc(CN3C[C@@H](C)N[C@@H](C)C3)cc2)c1 [Example 30, 5-((2-(4-(((3S,5R)-3,5-Dimethylpiperazin-1-yl)methyl)benzamide)pyridin-4-yl)oxy)-6-(2-ethoxyethoxy)-N-methyl-1H-indole-1-carboxamide]			566 nM
CCOCCOc1cc2c(ccn2C(=O)NC)cc1Oc1ccnc(NC(=O)c2ccc(C3CCNCC3)cc2)c1 [Example 24, 6-(2-Ethoxyethoxy)-N-methyl-5-((2-(4-(piperidin-4-yl)benzamide)pyridin-4-yl)oxy)-1H-indole-1-carboxamide]	6.2 nM		
CNC(=O)n1ccc2cc(Oc3ccnc(NC(=O)c4ccc(C5CN(C)C5)cc4)c3)c(OCCOC)cc21 [Example 87]	3.9 nM		
CNC(=O)n1ccc2cc(Oc3ccnc(NC(=O)c4ccc(C5CCN(CCO)CC5)cc4)c3)c(OCCCOC)cc21 [Example 128]	6.4 nM		
CNC(=O)n1ccc2cc(Oc3ccnc(NC(=O)c4ccc(C5CCN(C(C)C)CC5)cc4)c3)c(OCCCOC)cc21 [Example 127]			226 nM
CCOCCOc1cc2c(ccn2C(=O)NC)cc1Oc1ccnc(NC(=O)c2ccc(C3CN(C[C@@H](C)O)C3)cc2)c1 [Example 96]	6.4 nM		
CNC(=O)n1ccc2cc(Oc3ccnc(NC(=O)c4ccc(C5CCN(C)CC5)cc4)c3)c(OC(C)C)cc21 [Example 69]	17.5 nM		
CCOc1cc2c(ccn2C(=O)NC)cc1Oc1ccnc(NC(=O)c2ccc(C3CCN(CC(C)(C)O)CC3)cc2)c1 [Example 58]	10 nM		
CNC(=O)n1ccc2cc(Oc3ccnc(NC(=O)c4ccc(C5CN(C(C)C)C5)cc4)c3)c(OCCOC)cc21 [Example 88]	6.9 nM		
